Experiment [1] addresses eVP24–KPNA5-ΔIBB complex (Homo sapiens, UniProt O15131). The experiment can be described thus: biochemical. It counts as binding, Human KPNA5; Ebola VP24.
Experiment [2] concerns the target monopartite NLS peptide (mpNLS) from the SV40 large T antigen (SV40). Description: fluorescence polarisation.

pKd: −log10 of the molar value. Ends that are not written are not given here.

A word on the pKd: it is the Kd on a negative log10 scale, so that one unit is a factor of ten. A low value points to a large Kd.

For the substance KRPAATKKAGQAKKKK [bpNLS], the pKd in experiment [1] was 6.68.

In experiment [1], STPPKKKRKVE [mpNLS] showed a pKd of 5.28. In the case of “Human KPNA5 aa 66–508 (KPNA5-ΔIBB) (domain or fragment)”, the pKd in experiment [2] is 5.28.

The values above are taken from paper PMC12390655 (Viruses, 2025).
